Test results published in patent US8193160B2 (priority 2006, dated 2012).
Converted amounts (≈) assume the structure as drawn.

Columns and labels:
[1] = system: Magnaporthe vegetative mycelia, wild type Guy11; assay: microbe, parasite or virus in culture; assay type: cell-based, Magnaporthe grisea; conditions: for MIC: Pyricularia oryzae, read-out: Minimum Inhibitory Concentration (MIC), Guy11
wild type conidia = assay type: cell-based, Magnaporthe grisea
wild type appressoria = assay type: cell-based, Magnaporthe grisea
abc3Δ conidia = assay type: cell-based, Magnaporthe grisea
ABC3 promoter = assay type: cell-based, Magnaporthe grisea

CCCCNC(=O)n1c(NC(=O)OC)nc2ccccc21 [Benomyl]
MIC [1]: 2 µg/mL (≈ 6.89 µM)

C[C@H]1CCC/C=C/[C@@H]2C[C@H](O)C[C@H]2[C@H](O)/C=C/C(=O)O1 [Brefeldin A]
Minimum Inhibitory Concentration (MIC), Guy11 [1]: 40 µg/mL

OC(Cn1cncn1)(Cn1cncn1)c1ccc(F)cc1F [Fluconazole]
MIC [1]: 2500 µg/mL (≈ 8160 µM)

CCC(C)n1ncn(-c2ccc(N3CCN(c4ccc(OCC5COC(Cn6cncn6)(c6ccc(Cl)cc6Cl)O5)cc4)CC3)cc2)c1=O (stereo not drawn) [Itraconazole]
MIC [1]: 2000 µg/mL (≈ 2830 µM)

[Cl-].[K+] [KCl, potassium chloride]
reversal of defects associated with Valinomycin action (wild type conidia): failed to reverse

CCC(=C/[C@H](C)C/C=C/C(C)=C/[C@@H](C)C(=O)[C@@H](C)[C@H](O)[C@@H](C)C/C(C)=C/C(=O)O)/C=C/[C@@H]1OC(=O)C=C[C@@H]1C [Leptomycin B]
Minimum Inhibitory Concentration (MIC), Guy11 [1]: 0.0075 µg/mL

CC1=CC(=O)c2ccccc2C1=O [Menadione]
effect on host penetration compared to treatment with peroxide (wild type appressoria): slightly reduced effect

CC(C)[C@@H]1NC(=O)[C@H](C)OC(=O)[C@@H](C(C)C)NC(=O)[C@@H](C(C)C)OC(=O)[C@H](C(C)C)NC(=O)[C@H](C)OC(=O)[C@@H](C(C)C)NC(=O)[C@@H](C(C)C)OC(=O)[C@H](C(C)C)NC(=O)[C@H](C)OC(=O)[C@@H](C(C)C)NC(=O)[C@@H](C(C)C)OC1=O [Valinomycin]
MIC [1]: 20 µg/mL (≈ 18 µM)
frequency of appressoria formation (wild type conidia): 61±2%
germ tube growth (wild type conidia): could withstand elevated concentration
effect on conidia (germ tube emergence) (abc3Δ conidia): complete blockage of conidial germ tube emergence
germ tube growth (abc3Δ conidia): inhibited

COc1ccc(CCN(C)CCCC(C#N)(c2ccc(OC)c(OC)c2)C(C)C)cc1OC (stereo not drawn) [Verapamil]
decrease in penetration peg formation (wild type appressoria): ≤ 74%
effect on germ tube emergence or growth (wild type appressoria): without affecting

OO [hydrogen peroxide]
growth under oxidative stress (wild type Guy11 strain): unaffected
appressoria able to breach the host surface (wild type appressoria): 36±2.8%
peroxide level that blocked germ tube emergence (wild type appressoria): exceeding 5 mM
ABC3 promoter driven destabilized-GFP fluorescence versus untreated control (ABC3 promoter): four fold higher

C[n+]1ccc(-c2cc[n+](C)cc2)cc1 [paraquat]
effect on host penetration compared to treatment with peroxide (wild type appressoria): slightly reduced effect

Actinomycin D
Minimum Inhibitory Concentration (MIC), Guy11 [1]: 15 µg/mL

Gramicidin D
Minimum Inhibitory Concentration (MIC), Guy11 [1]: 180 µg/mL
